Experimental data as given in PMC5961436, “PKA and PKC Modulators Affect Ion Channel Function and Internalization of Recombinant Alpha1 and Alpha1-Beta Glycine Receptors” (Frontiers in Molecular Neuroscience, 2018).
Like-named read-outs stand apart in the source and are kept apart here.

Experiments:
GlyR [1] = system: GlyR; set-up: method as in Li and Yang, 2001; conditions: ref Li and Yang, 2001; cited from earlier work
homomeric α1 GlyRs = system: homomeric α1 GlyRs; set-up: method as in Uchiyama et al., 1994; conditions: ref Uchiyama et al., 1994; cited from earlier work
[2] = system: human heteromeric α1-β GlyRs; experiment: Whole-cell patch-clamp of glycine induced currents, modulators in the intracellular buffer, HEK293 cells expressing GlyR α1-β; type: cell-based; conditions: for desensitization of glycine induced currents / effect on EC50 compared to control / Fraction of desensitizing cells / Imax: 0.5 μM modulator in intracellular buffer; for Fraction of desensitizing cells / Imax: mean ± SEM
Procedure: (§1) HEK293 cells were grown in 10 cm tissue culture Petri dishes in Eagle minimal essential medium (Sigma-Aldrich Chemie GmbH, Munich, Germany) supplemented with 10% FBS (Invitrogen, Karlsruhe, Germany) and penicillin/streptomycin (Sigma-Aldrich Chemie GmbH, Munich, Germany) at 5% CO2 and 37°C in a water saturated atmosphere. For electrophysiological experiments, cells were plated on poly-L lysine treated glass coverslips in 6 cm dishes. Transfection was performed 1 day after cell passage using Gen-Carrier (Epoch Lifesciences, Sugarland, TX, USA): 1.3 μg of receptor DNA, 1.3 μg of green fluorescent protein DNA, and 2.6 μl GenCarrier were used, following the manufacturer’s instructions. Measurements were performed 2–4 days after transfection. HEK293 cells used for protein expression and internalization analysis were transfected using a modified calcium phosphate precipitation method. In brief, a mixture of plasmid DNA, CaCl2 (2.5M), 0.1× TE buffer and 2× HBS (50 mM HEPES, 12 mM glucose, 10 mM KCl, 280 mM NaCl, 1.5 mM Na2HPO4) was applied onto the cells for 6 h. A GlyR α1 to GlyR β ratio of 1:2 was used for co-expression. Transfection medium was replaced by fresh medium after 6 h. Immunocytochemical stainings were always done 24 h after transfection, biotinylation experiments were performed 48 h after transfection.
(§2) using a nonlinear algorithm in Microcal Origin. Here, Iglycine is the current amplitude at a given glycine concentration, Isat is the maximum current amplitude at saturating concentrations of glycine, EC50 is the glycine concentration at half-maximal current responses, and nHill is the Hill coefficient. Currents from each individual cell were normalized to the maximum response at saturating glycine concentrations. Significance of differences between EC50 values were determined using one-way ANOVA with p ≤ 0.05 (*) and p ≤ 0.01 (**) taken as significant. In all experiments, EC50 values were determined for each individual cell from a non-linear fit of dose response data to the logistic equation. An unweighted average ± standard error (SEM) was calculated from all individual EC50 values, without considering the fitting errors.
(§3) For time course analysis, a series of EC50 data was recorded from each cell. The first concentration-response curve, defined as t = 0, was recorded immediately after establishing the whole-cell configuration and positioning the cell in front of the delivery tube. […] Further recordings were made at t = 3 min, t = 6 min and t = 10 min (not attained with all cells). Time-independent recordings were taken at t = 0, and values of EC50 and Imax in the presence of PKA- or PKC modulators were normalized to control (no modulator). For time course analysis, responses were normalized to the control value at t = 0. Patch-clamp experiments were carried out on different dates and using different batches of HEK 293 cells. Since control EC50 values varied between different days of plating and between batches of cells, measurements with kinase modulators were always compared to control measurements recorded on the same day and from the same batch of cells.

GlyR α1-β = experiment: Receptor internalization assay (pre-labeled GlyRs, confocal microscopy) in HEK293 cells; type: cell-based, human; conditions: 200 nM modulator, 15 min, 37°C; untreated cells 1.7 ± 0.4 dots/cell; ± SEM
Procedure: To stain internalized GlyRs, GlyR α1 was cotransfected with GlyR β into HEK293 cells grown on glass cover slips. Internalization experiments were performed 24 h post-transfection. Live cells co-expressing GlyR α1-β receptors were labeled with the α1-specific monoclonal antibody Mab2b (1:500 in Earle’s minimal essential medium for 1 h at 4°C). Earle’s minimal essential medium was supplemented with 10% fetal calf serum, […] GlutaMAX, 100 mM sodium pyruvate, and 50 U/ml penicillin/streptomycin (Thermo Fisher Scientific, Waltham, MA, USA). Mab2b was purchased from Synaptic Systems, Göttingen, Germany. Following three washing steps in phosphate-buffered saline (PBS, pH 7.4), cells were incubated with goat-anti-mouse-Cy3 secondary antibody again for 1 h at 4°C (dilution of secondary antibody 1:500 in Earle’s minimal essential medium, Dianova, Hamburg Germany). Glass cover slips with pre-labeled GlyRs were transferred into a 24-well plate containing 500 μl of Earle’s minimal essential medium with PKA and PKC modulators (200 nM final concentration each; Forskolin, H-89, PMA, Staurosporine aglycon, all from Sigma-Aldrich Chemie GmbH, Munich, Germany). Cells were incubated with modulators for 15 min to allow receptor internalization. Time point zero (0 min) was taken as a negative internalization control to ensure health of HEK293 cells (pre-labeling of GlyRs at 4°C inhibits internalization). Following incubation with PKA and PKC modulators, cells were stained with a second secondary antibody (donkey-anti-goat-Dyelight488, 1:250 in Earle’s minimal essential medium, Dianova, Hamburg, Germany) for 30 min at 4°C to label receptor retained at the cellular surface. Cells were fixed with 4% paraformaldehyde, 4% sucrose in PBS for 15 min at 4°C, washed three times in PBS and stained with 4′,6-diamidino-2-phenylindole (DAPI, Thermo Fisher Scientific, Waltham, MA, USA) to label the cell nuclei for 5 min at 4°C (1:5000 in PBS). Coverslips were washed again with PBS and Aqua Dest and mounted on glass slides using mowiol.
The images were obtained using an inverted Olympus IX81 microscope equipped with an Olympus FV1000 confocal laser scanning system, a FVD10 SPD spectral detector and diode lasers of 495 nm (Alexa488) and 550 nm (Cy3; Olympus, Tokyo, Japan), and an Olympus UPLSAPO 60× (oil, numerical aperture: 1.35) objective. Adobe Photoshop (Adobe, San Jose, CA, USA) or ImageJ (1.51)/Fiji^1 were used for image analysis.

nAChR = system: nAChR; set-up: method as in Wagoner and Pallotta, 1988; conditions: cAMP-independent; ref Wagoner and Pallotta, 1988; cited from earlier work
Igly = system: Igly; set-up: method as in Min et al., 1996; conditions: ref Min et al., 1996; cited from earlier work
human homomeric α1 GlyRs = experiment: Whole-cell patch-clamp of glycine induced currents, modulators in the intracellular buffer, HEK293 cells expressing GlyR α1; type: cell-based; conditions: for change of Imax at t = 10 min normalized to t = 0: 0.25 μM intracellular modulator, one-way ANOVA; for effect on EC50: 0.25 μM modulator, t = 0; for desensitization of glycine induced currents / effect on EC50 compared to control / Fraction of desensitizing cells / Imax: 0.5 μM modulator in intracellular buffer; for Fraction of desensitizing cells / Imax: mean ± SEM
Procedure: as §1, §2, §3

GlyRs = system: GlyRs; set-up: method as in Salceda and Aguirre-Ramirez, 2005; conditions: 10 μM Forskolin; ref Salceda and Aguirre-Ramirez, 2005; cited from earlier work
[3] = system: glycine activated chloride currents; set-up: method as in Ren et al., 1998; conditions: added to the pipette solution; ref Ren et al., 1998; cited from earlier work
GlyRα1 = system: GlyRα1; set-up: method as in Huang et al., 2007; conditions: ref Huang et al., 2007; cited from earlier work
GlyR [4] = system: GlyR; set-up: method as in Vaello et al., 1994; conditions: ref Vaello et al., 1994; cited from earlier work
glycine currents = system: glycine currents; set-up: method as in Tapia et al., 1997; conditions: ref Tapia et al., 1997; cited from earlier work
[5] = system: GABA- and Gly-gated currents; set-up: method as in Machu et al., 2006; conditions: HEK293 cells, ref Machu et al., 2006, cited from earlier work
[6] = system: GABA- and Gly-gated currents; set-up: method as in Machu et al., 2006; conditions: oocytes; ref Machu et al., 2006; cited from earlier work
HEK293 cells = experiment: Tolerance of HEK293 cells to intracellular kinase modulators during patch-clamp; conditions: intracellular concentration raised to 1 μM
Procedure: Whole-cell recording experiments were performed using a HEKA EPC10 amplifier (HEKA Electronics, Lambrecht, Germany) controlled by Pulse software (HEKA). Recording pipettes were pulled from borosilicate glass (World Precision Instruments, Berlin, Germany) using a Sutter P-97 horizontal puller (Sutter, Novato, CA, USA). […] Series resistance, as well as slow and fast capacitance were compensated using the EPC10 circuitry. The different protein kinase modulators were dissolved in intracellular buffer at a concentration of 0.5 μM. For studies of concentration- and time-dependence, kinase modulators were used at concentrations of 0.1 μM and 0.25 μM. Current responses were measured at room temperature (21–23°C) at a holding potential of −50 mV. Solutions were applied using an Octaflow system (NPI electronics, Tamm, Germany), where cells were bathed in a laminar flow of buffer, giving a time resolution for solution exchange and re-equilibration of about 100 ms. The external buffer consisted of 135 mM NaCl, 5.5 mM KCl, 2 mM CaCl2, 1.0 mM MgCl2 and 10 mM Hepes (pH adjusted to 7.4 with NaOH); the internal buffer was 140 mM CsCl, 1.0 mM CaCl2, 2.0 mM MgCl2, 5.0 mM EGTA and 10 mM Hepes (pH adjusted to 7.2 with CsOH).

| Structure (SMILES) | desensitization of glycine induced currents [2] | effect on EC50 compared to control [2] | Fraction of desensitizing cells [2] | Imax [2] [nA] | internalized receptor (GlyR α1-β) [dots/cell] | change of Imax at t = 10 min normalized to t = 0 (human homomeric α1 GlyRs) | effect on EC50 (human homomeric α1 GlyRs) | desensitization of glycine induced currents (human homomeric α1 GlyRs; GlyR α1) | effect on EC50 compared to control (human homomeric α1 GlyRs; GlyR α1) | Fraction of desensitizing cells (human homomeric α1 GlyRs; GlyR α1) | Imax (human homomeric α1 GlyRs; GlyR α1) [nA] | other results |
| --- | --- | --- | --- | --- | --- | --- | --- | --- | --- | --- | --- | --- |
| C=C[C@@]1(C)CC(=O)[C@@H]2[C@@]3(C)CCCC(C)(C)[C@@H]3[C@H](O)[C@H](OC(C)=O)[C@@]2(C)O1 [1,9-dideoxy Forskolin] | – | – | – | – | – | – | – | – | – | – | – | effect on desensitization of whole cell responses (GlyR [1]): accelerates the desensitization effectively |
| CCCCCCCCCCCCCC(=O)O[C@@H]1[C@@H](C)[C@@]2(O)[C@@H](C=C(CO)C[C@@]3(O)C(=O)C(C)=C[C@@H]23)[C@@H]2C(C)(C)[C@]12OC(C)=O [4-alpha-PMA] | – | – | – | – | – | – | – | – | – | – | – | effect on glycine currents (homomeric α1 GlyRs): did not affect the glycine currents |
| CCCCCCCCCCCCCC(=O)O[C@@H]1[C@@H](C)[C@@]2(O)[C@@H](C=C(CO)C[C@]3(O)C(=O)C(C)=C[C@@H]23)[C@@H]2C(C)(C)[C@]12OC(C)=O [4-beta-PMA] | – | – | – | – | – | – | – | – | – | – | – | effect on glycine currents (homomeric α1 GlyRs): Reduced responses |
| C=C[C@@]1(C)CC(=O)[C@]2(O)[C@@]3(C)[C@@H](O)CCC(C)(C)[C@@H]3[C@H](O)[C@H](OC(C)=O)[C@@]2(C)O1 [Forskolin] | faster desensitization | significant increase | 0.52 ± 0.07 | 0.99 ± 0.24 | 6.9 ± 1.5 | significantly reduced | increased EC50 | faster desensitization | significant increase | 0.57 ± 0.12 | 1.20 ± 0.24 | effect on desensitization of whole cell responses (GlyR [1]): markedly accelerates desensitization; effect on desensitization of the nAChR (nAChR): enhancement of desensitization; effect on Igly (Igly): inhibited Igly potentiation; reduction of specific binding of both radioligands (GlyRs): 30%–90% |
| O=S(=O)(NCCNC/C=C/c1ccc(Br)cc1)c1cccc2cnccc12 [H-89] | non-desensitizing current responses | decreased EC50 values | 0.19 ± 0.09 | 1.37 ± 0.28 | 4.0 ± 1.0 | not significant | opposite effect | non-desensitizing current responses | decreased EC50 values | 0.07 ± 0.03 | 1.91 ± 0.57 | effect on ATP induced run-up of the glycine current [3]: blocked; effect on Igly (Igly): potentiation of Igly |
| CCCCCCCCCCCCCC(=O)O[C@@H]1[C@@H](C)[C@@]2(O)[C@@H](C=C(CO)C[C@]3(O)C(=O)C(C)=C[C@@H]23)[C@@H]2C(C)(C)[C@]12OC(C)=O [PMA, phorbol-12-myristate-13-acetate] | no effect on receptor desensitization | not statistically significant | 0.27 ± 0.08 | 1.26 ± 0.27 | 3.9 ± 0.7 | significantly reduced | increased EC50 | no effect on receptor desensitization | increased | 0.05 ± 0.05 | 2.30 ± 0.74 | start of receptor internalization (GlyRα1): ≤ 15 min; effect on glycinergic currents (GlyR [4]): decreased glycinergic currents; effect on glycine currents (glycine currents): reduce the amplitude of glycine currents; modulation of receptors ([5]; 35°C): decreased the function; modulation of receptors ([5]; room temperature): ineffective; peak amplitude of GABA- and Gly-gated currents [6]: large, reproducible decrease |
| O=C1NCc2c1c1c3ccccc3[nH]c1c1[nH]c3ccccc3c21 [Staurosporine aglycon] | slow or no desensitization | decrease of half maximum values | 0.06 ± 0.04 | 1.11 ± 0.20 | 2.3 ± 0.5 | not significant | opposite effect | slow or no desensitization | decrease of half maximum values | 0.10 ± 0.05 | 1.70 ± 0.29 | effect of 4-beta-PMA in the presence of Staurosporine aglycon (homomeric α1 GlyRs): the effect was inhibited; cell survival (HEK293 cells): cells did not survive |
| NCC(=O)O [glycine] | – | – | – | – | – | – | – | – | – | – | – | EC50 ([2]; absence of modulators, n = 8): 45.4 ± 6 µM; EC50 (human homomeric α1 GlyRs; GlyR α1, absence of modulators, n = 11): 37.4 ± 3.7 µM |
